Results taken from BindingDB's records for doi:10.1021/jm020955n (Johannes Gutenberg-Universität, 2002).

Each compound was assayed against Glutamate receptor ionotropic, NMDA 1 glycine site (Sus scrofa) (assay: Tested for the affinity for the glycine binding site of the N-methyl-D-aspartate glutamate receptor using pig brain membranes in binding assay with [3H]-MDL- 105,519).

Structure (SMILES)	Ki [nM]
O=C(O)c1[nH]c2cc(Cl)cc(Cl)c2c1Cn1cc(O)n(-c2cccc(Cl)c2)c1=O [4,6-Dichloro-3-[3-(3-chloro-phenyl)-2,4-dioxo-imidazolidin-1-ylmethyl]-1H-indole-2-carboxylic acid]	85
O=C(O)c1cc2c(Cl)cc(Cl)cc2[nH]1	2900
O=C(O)c1[nH]c2cc(Cl)cc(Cl)c2c1Cn1cc(O)n(C2CCCCC2)c1=O [4,6-Dichloro-3-(3-cyclohexyl-2,4-dioxo-imidazolidin-1-ylmethyl)-1H-indole-2-carboxylic acid]	130
CC(C)n1c(O)cn(Cc2c(C(=O)O)[nH]c3cc(Cl)cc(Cl)c23)c1=O [4,6-Dichloro-3-(3-isopropyl-2,4-dioxo-imidazolidin-1-ylmethyl)-1H-indole-2-carboxylic acid]	1050
Cc1c(O)n(-c2ccccc2)c(=O)n1Cc1c(C(=O)O)[nH]c2cc(Cl)cc(Cl)c12 [4,6-Dichloro-3-(5-methyl-2,4-dioxo-3-phenyl-imidazolidin-1-ylmethyl)-1H-indole-2-carboxylic acid]	310
O=C(O)c1[nH]c2cc(Cl)cc(Cl)c2c1CNCc1ccccc1 [3-(Benzylamino-methyl)-4,6-dichloro-1H-indole-2-carboxylic acid]	92000
O=C(NCc1c(C(=O)O)[nH]c2cc(Cl)cc(Cl)c12)NS(=O)(=O)c1ccccc1 [4,6-dichloro-3-[({[(phenylsulfonyl)amino]carbonyl}amino)methyl]-1H-indole-2-carboxylic acid]	72
CC(=O)c1cccc(-n2c(O)cn(Cc3c(C(=O)O)[nH]c4cc(Cl)cc(Cl)c34)c2=O)c1 [3-[3-(3-Acetyl-phenyl)-2,4-dioxo-imidazolidin-1-ylmethyl]-4,6-dichloro-1H-indole-2-carboxylic acid]	57
O=C(O)c1[nH]c2cc(Cl)cc(Cl)c2c1Cn1cc(O)n(-c2ccccc2)c1=O [4,6-Dichloro-3-(2,4-dioxo-3-phenyl-imidazolidin-1-ylmethyl)-1H-indole-2-carboxylic acid]	22
O=C(NCc1c(C(=O)O)[nH]c2cc(Cl)cc(Cl)c12)Nc1ccccc1 [4,6-Dichloro-3-[(3-phenyl-ureido)-methyl]-1H-indole-2-carboxylic acid]	14
O=C(O)c1[nH]c2cc(Cl)cc(Cl)c2c1CNS(=O)(=O)c1ccccc1 [3-(Benzenesulfonylamino-methyl)-4,6-dichloro-1H-indole-2-carboxylic acid]	990
CCn1c(O)cn(Cc2c(C(=O)O)[nH]c3cc(Cl)cc(Cl)c23)c1=O [4,6-Dichloro-3-(3-ethyl-2,4-dioxo-imidazolidin-1-ylmethyl)-1H-indole-2-carboxylic acid]	1000
O=C(O)c1[nH]c2cc(Cl)cc(Cl)c2c1Cn1cc(O)n(-c2cc(Cl)cc(Cl)c2)c1=O [4,6-Dichloro-3-[3-(3,5-dichloro-phenyl)-2,4-dioxo-imidazolidin-1-ylmethyl]-1H-indole-2-carboxylic acid]	80
CC(=O)c1ccc(-n2c(O)cn(Cc3c(C(=O)O)[nH]c4cc(Cl)cc(Cl)c34)c2=O)cc1 [3-[3-(4-Acetyl-phenyl)-2,4-dioxo-imidazolidin-1-ylmethyl]-4,6-dichloro-1H-indole-2-carboxylic acid]	150
O=C(O)c1[nH]c2cc(Cl)cc(Cl)c2c1Cn1cc(O)n(-c2ccc(F)cc2)c1=O [4,6-Dichloro-3-[3-(4-fluoro-phenyl)-2,4-dioxo-imidazolidin-1-ylmethyl]-1H-indole-2-carboxylic acid]	53
O=C(O)c1[nH]c2cc(Cl)cc(Cl)c2c1Cn1cc(O)n(-c2ccc(Cl)cc2)c1=O [4,6-Dichloro-3-[3-(4-chloro-phenyl)-2,4-dioxo-imidazolidin-1-ylmethyl]-1H-indole-2-carboxylic acid]	120
O=C(O)c1[nH]c2cc(Cl)cc(Cl)c2c1Cn1cc(O)n(-c2ccccc2)c1=S [4,6-Dichloro-3-(4-oxo-3-phenyl-2-thioxo-imidazolidin-1-ylmethyl)-1H-indole-2-carboxylic acid]	580
COc1ccc(-n2c(O)cn(Cc3c(C(=O)O)[nH]c4cc(Cl)cc(Cl)c34)c2=O)cc1 [4,6-Dichloro-3-[3-(4-methoxy-phenyl)-2,4-dioxo-imidazolidin-1-ylmethyl]-1H-indole-2-carboxylic acid]	100
Cc1ccc(-n2c(O)cn(Cc3c(C(=O)O)[nH]c4cc(Cl)cc(Cl)c34)c2=O)cc1 [4,6-Dichloro-3-(2,4-dioxo-3-p-tolyl-imidazolidin-1-ylmethyl)-1H-indole-2-carboxylic acid]	36
O=C(O)c1[nH]c2cc(Cl)cc(Cl)c2c1CN1CCN(c2ccccc2)C1=O [4,6-Dichloro-3-(2-oxo-3-phenyl-imidazolidin-1-ylmethyl)-1H-indole-2-carboxylic acid]	58
